How the values were obtained:
5-lipoxygenase = target: T1, 5-lipoxygenase (Cavia porcellus, UniProt A0A286X958); assay: 5-Lipoxygenase (5-LPO) Assay, inhibition of 5-HETE formation in PMNL sonicate supernatant; assay type: biochemical, guinea pig; conditions: guinea pig PMNL sonicate supernatant, 37° C., 5 μM 14C-arachidonic acid
T1 construct: incubating 0.2 ml of the supernatant obtained from the PMNL sonicate with the test compound; from tissue; host or cells: casein-elicited guinea pig peritoneal polymorphonuclear leukocytes (PMNL, more than 95 percent of the cells), sonicated, 30,000 x g supernatant
T1 sequence (A0A286X958 1-674): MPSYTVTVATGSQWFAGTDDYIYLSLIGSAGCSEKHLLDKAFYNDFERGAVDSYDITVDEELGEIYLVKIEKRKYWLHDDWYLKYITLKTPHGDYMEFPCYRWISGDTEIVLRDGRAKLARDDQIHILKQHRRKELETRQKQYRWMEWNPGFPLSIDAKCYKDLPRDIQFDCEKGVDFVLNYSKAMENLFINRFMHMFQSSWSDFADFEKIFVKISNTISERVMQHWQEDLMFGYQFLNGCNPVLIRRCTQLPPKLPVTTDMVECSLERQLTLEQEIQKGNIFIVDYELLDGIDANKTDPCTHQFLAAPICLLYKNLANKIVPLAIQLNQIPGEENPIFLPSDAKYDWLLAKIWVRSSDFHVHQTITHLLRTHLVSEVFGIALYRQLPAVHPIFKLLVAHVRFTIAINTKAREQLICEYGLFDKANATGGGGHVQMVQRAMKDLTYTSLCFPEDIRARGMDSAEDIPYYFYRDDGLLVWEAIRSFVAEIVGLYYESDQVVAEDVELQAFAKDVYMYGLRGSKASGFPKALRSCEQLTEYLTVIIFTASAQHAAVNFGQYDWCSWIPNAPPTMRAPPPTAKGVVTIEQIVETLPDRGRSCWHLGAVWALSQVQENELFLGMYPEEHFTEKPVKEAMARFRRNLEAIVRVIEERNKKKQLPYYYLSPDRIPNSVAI
Procedure: 5-Lipoxygenase (5-LPO) Assay
Ten milliliters of a 2% casein solution were injected intraperitoneally into guinea pigs weighing 250-300 gm. After 16-18 hours, the guinea pigs were killed by suffocation in a carbon dioxide chamber. The peritoneal cavity was infused with 70 ml of saline and 40-50 ml of the fluid were recovered from the cavity. After centrifugation, cell pellets were washed twice in Hank's balanced salt solution (HBSS) without calcium ion.
The cells were then suspended in 5 ml of sodium phosphate buffer, pH 7.1 containing 1 mM EDTA, and 0.1% gelatin. About 20-30×10^7 cells were obtained from one guinea pig.
The PMNL suspension was disrupted by five 1/2 second pulse sonications at the setting of 3 in a Branson Sonifier, Model 350, equipped with a microtip. The sonicates were combined and centrifuged at 30,000× g for 10 minutes. The supernatant was kept frozen at -70° C. until use.
Enzyme activity was determined by assaying for 5-HETE formation by first incubating 0.2 ml of the supernatant obtained from the PMNL sonicate with the test compound, 1 mM CaCl2, 2 mM ATP, and 1 mM GSH for 5 minutes at 37° C. The mixture is treated with 5 μM ^14 C-arachidonicacid and incubated at 37° C. an additional 10 minutes. The enzyme reaction was then stopped by the addition of 10 μl of 1M citric acid and 10μl of an alcohol solution containing 20 mg/ml each of indomethacin and butylated hydroxyanisole (BHA). The reaction mixture was spotted (50 μl on a silica gel plate (Baker TLC plate S1250-PA-19C) and subjected to TLC in a solvent system of ethyl acetate/2,2,4-trimethylpentane/glacial acetic acid/water (90:50:20:100).
The radioactivity of the arachidonic acid and its metabolites (5-HETE and LTB4) was visualized from a developed x-ray film which had been exposed to the TLC plate 1-2 days. The amount of 5-HETE formed was quantitated by scraping the silica gel area corresponding to the spot on the x-ray film, and the radioactivity determined in a Isocap/300 liquid scintillation counter (Searle Analytic, Inc.).
The percent inhibition of the formation of 5-HETE was determined for each concentration of test compound tested as compared to a control experiment wherein no test compound was added. The concentration and percent inhibition values were plotted on semi log paper and the concentration in which formation of 5-HETE is inhibited by 50% (IC50) was determined by interpolation.

[1] = target: T2, fatty acid cyclooxygenase (Homo sapiens, UniProt P23219); assay: Fatty Acid Cyclooxygenase (FCO) Assay, inhibition of PGE2 formation by purified human platelet enzyme; assay type: biochemical; conditions: percent inhibition at 30 μg/ml
T2 construct: The solubilized fatty acid cyclooxygenase was applied to a 440 ml electrofocusing column; from tissue; host or cells: human platelets: microsomes solubilized with Triton X-100, purified by electrofocusing and G-200 Sephadex
Procedure: Fatty Acid Cyclooxygenase (FCO) Assay
Microsomes were prepared from 185 bags of human platelets (each bag containing the platelets from one pint of blood prepared using differential centrifugation procedures). The platelets from approximately 60 bags were prepared at one time. Platelet-rich plasma (500 g) was centrifuged at 10,000×g for 20 minutes, and the platelet pellet was suspended in 100 ml of 0.1M potassium phosphate buffer, pH 8.0, with a Teflon glass homogenizer and sonicated for 5.0 minutes with a Bronson Sonifier (Model 350) in a rosette flask cooled in ice water. Disrupted platelets were centrifuged 15 minutes at 10,000× g. The supernatant was centrifuged at 100,000× g for 90 minutes and the microsomal pellets were homogenized in 25 ml of 20% sucrose containing 1.0% Triton X-100 detergent. After 30 minutes at 4° C., the solubilized microsomes were centrifuged at 100,000× g for 60 minutes. The yellow supernatant was removed and stored at -70 ° C.
The solubilized fatty acid cyclooxygenase was applied to a 440 ml electrofocusing column (LKB-8012) containing 1% phisolytes (Brinkman Instruments, Westburgh, NY), pH 2-11, with the cathode at the top of the column. The enzyme was layered onto the column at the appropriate time so that its sucrose concentration was equal to that of the column gradient. This was accomplished by checking the gradient concentration periodically with a sucrose hand refractometer. Electrofocusing was carried out for 16 hours with an initial voltage of 400 V and a final voltage of 900-1,000 volts. Fractions were collected (20 ml) and assayed for PGE2 formation. Active peak fractions were pooled and concentrated by ultrafiltration (XM 100A) to a volume of 3-5 ml.
Active fractions from electrofocusing were applied to a G-200 Sephadex column (2 cm×46 cm) and eluted with 10 mM potassium phosphate buffer, pH 7.0, in 5 ml fractions. After assay, active fractions were poored and concentrated to 1.0 ml by ultrafiltration (XM 100A), and kept frozen at -70° C.
Enzyme activity was determined by assaying for PGE2 formation by preincubating the enzyme with 10 mmol/l imidazole phosphate buffer, pH 8.0, 2 mmol/l epinephrine, 2 mmol/l methemoglobin, and the test compound (30 μg/ml) in a total volume of 0.2 ml for one minute at 37° C. After preincubation, 5 mmol/l ^14 C-arachidonic acid were added and the mixture was incubated an additional 0.5 minutes at 37° C. The enzyme reaction was stopped by the addition of 2 μl of indomethacin (2 mg/ml) in alcohol.
The reaction mixture was spotted (50 μl) on a silica gel (LQ6D) plate and subjected to TLC. The solvent system consisted of chloroform-methanol-glacial acetic acid (90:5:5, v/v/v) and the relative mobilities were PGF2α =0.235, and PGE2 =0.47. The silica gel on the plate was scraped in 1 cm sections, suspended in 5 ml of the scintillation fluid [5.88 g of 2,5-diphenyloxazole and 118 mg of 1,4 -bis(5-phenyloxazol-2-yl)benzene] dissolved in 650 ml of toluene and 350 ml of Triton X-100) and the radioactivity was determined in an Isocap/300 liquid scintillation counter (Searle Analytic, Inc., Southfield, Mich.). Another 50 μl of the mixture was added to 10 ml of the Triton X-100 based scintillation fluid, and the radioactivity was determined so that the amount of radioactivity recovery from the TLC plate could be ascertained. PGE2 formation for each test compound was determined as a percent of control experiments wherein no test compound was added. Data is expressed in Table I either as the percent inhibition of formation of PGE2 at a test compound concentration of 30 μ g/ml, or as an IC50 for inhibition of PGE2 formation.

T2 sequence (P23219 24-599): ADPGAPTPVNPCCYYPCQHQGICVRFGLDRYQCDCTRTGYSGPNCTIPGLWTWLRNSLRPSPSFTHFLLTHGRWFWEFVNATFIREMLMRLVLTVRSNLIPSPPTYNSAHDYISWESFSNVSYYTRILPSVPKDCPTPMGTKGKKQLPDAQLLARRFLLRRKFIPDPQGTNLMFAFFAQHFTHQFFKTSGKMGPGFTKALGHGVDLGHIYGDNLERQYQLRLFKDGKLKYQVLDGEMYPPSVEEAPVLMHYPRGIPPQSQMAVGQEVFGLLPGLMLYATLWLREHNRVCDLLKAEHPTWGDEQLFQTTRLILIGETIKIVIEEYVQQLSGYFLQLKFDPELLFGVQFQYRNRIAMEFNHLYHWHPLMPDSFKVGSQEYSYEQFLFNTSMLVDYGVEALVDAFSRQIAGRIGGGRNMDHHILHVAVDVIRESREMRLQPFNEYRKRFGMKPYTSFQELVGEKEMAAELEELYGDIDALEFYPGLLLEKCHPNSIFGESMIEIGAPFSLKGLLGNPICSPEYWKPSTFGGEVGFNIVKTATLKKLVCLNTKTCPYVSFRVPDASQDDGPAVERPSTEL

| Compound | IC50 (5-lipoxygenase) | inhibition at 30 µg/mL [1] |
| --- | --- | --- |
| CCCc1c(OCCCCC(=O)N(CC)CC)ccc(C(=O)c2ccccc2OC)c1OC [Example 31, N,N-Diethyl-5-[3-methoxy-4-(2-methoxybenzoyl)-2-propylphenoxy]pentanamide] | 17.6 µM | < 5% |
| CCCc1c(OCCCCc2nnnn2C)ccc(C(=O)c2ccccc2OC)c1O [Example 33, (2-Hydroxy-4-[4-(1-methyl-1H-tetrazol-5-yl)butoxy]3-propylphenyl)(2-methoxyphenyl)methanone] | 0.707 µM | 0% |

From US4801616A, “Diphenylmethanone compounds and anti-inflammatory use thereof” (Eli Lilly and Company, priority 1986, dated 1989)
